The values that follow are results of earlier work, collected in US20170217996A1, “Large-scale diastereoselective syntheses of cycloheptadienylsulfones and stereotetrads” (Purdue Research Foundation, priority 2014, published 2017).

In one data set the test system is Colon 26 carcinoma. The settings on record: mice.
The subject of the next data set is actin. The settings on record: in vitro.
Another data set deals with Ehrlich carcinoma. The settings on record: mice.
The next data set deals with P388 leukemia. As to conditions: mice.
In another data set the test system is Lewis lung. The settings on record: mice.
Another data set deals with B16 melanoma. The settings on record: mice.
Another data set deals with tubulin. As to conditions: in association with actin.

For `COCC(C(=O)O[C@@H]1C/C=C/C=C/C(=O)O[C@H]([C@@H](C)[C@@H](O)[C@@H](C)CC[C@@H](OC(=O)C(C)N(C)C)[C@H](C)[C@H](OC(C)=O)[C@H](C)/C=C/N(C)C=O)C/C=C/[C@H](OC)C[C@H](C)C/C=C(\C)[C@@H](OC)CC[C@@H](C)[C@@H](O)[C@@H]1C)N(C)C` (stereo partly drawn) [ApA, Aplyronine A], the “complex with actin and tubulin” value in the data set with actin and tubulin is given as 1:1:1 heterotrimeric complex. Further, the increase of lifespan with Colon 26 carcinoma is given as 255%; in the data set on Ehrlich carcinoma, 398%; with P388 leukemia, 545%; in the data set on Lewis lung, 566%; in the data set on B16 melanoma, 201%. The “inhibition of actin polymerization” value in the data set with actin is reported as “inhibit actin polymerization in vitro to the same extent”. For the same compound, in the data set on HeLa S3 cells, the “concentration that inhibits spindle formation and mitosis” value is recorded as 100 pM. Moreover, the “inhibition of tubulin polymerization” value in the data set with tubulin was “inhibits tubulin polymerization”.
